Patent US10584159B2, “Renilla based biosensors for monitoring biomolecule localization and trafficking in cells” (The Royal Institution for the Advancement of …, priority 2014, dated 2020)
Starred links: 1 amine or outer side, 2 acyl side, 3 side chain; linkers in the order of their positions; H or OH if unused. Positions of bridges follow the written chain, without caps; N, C: chain ends. Non-standard residues stand in square brackets, D forms with d. Residues, ends and D or L forms follow the SMILES beside them. *: point of attachment. Leu(3R-OH,Nα-propionyl) = CCC(=O)N[C@H](C(=O)*)[C@H](O)C(C)C; X1 = CC(C)[C@@H](O[*:3])[C@H](N[*:1])C(=O)[*:2]; NMeT = CN[C@H](C(=O)O)[C@@H](C)O; dPhLac = O=C(O)[C@H](O)Cc1ccccc1; NMeA = CN[C@@H](C)C(=O)O; NMeDha = C=C(NC)C(=O)O

Test system: Acetylcholine receptors
Experiment: PKN-based RhoA activation BRET assay, carbachol stimulation
Type: cell-based
Conditions: 100 nM Ubo, 100 μM carbachol 70 s
Description: PKN-based RhoA activation assay. For FIGS. 25B-D, HEK293SL cells were grown in DMEM supplemented with 6% fetal bovine serum (FBS) and 20 μg/ml gentamycin, at 37° C. Cells were seeded at a density of 7.5×10^5 cells per 100 mm dishes and were transiently transfected the next day with constructs encoding AT1R (3 μg) along with PKN-crib-RlucII (90 ng) and rGFP-CAAX (480 ng) using calcium phosphate method as described previously. After 24 h, cells were detached and seeded onto poly-ornithine-coated 96-well white plates at a density of 25 000 cells per well in media. The next day, cells were washed once with Tyrode's buffer and left in 80 μl of Tyrode's buffer at 37° C. When indicated, cells were treated with Ubo-Qic 100 nM for 30 min or C3 toxin for 3 μg/ml (in FIG. 25I), 4 hours at 37° C. Cell stimulation and BRET measurements were done at RT. BRET signals were monitored by addition of Coel-400a to a final concentration of 5 μM using a Synergy2 (BioTek®) microplate reader. Filter set was 410±80 nm and 515±30 nm for detecting the RlucII Renilla luciferase (donor) and rGFP (acceptor) light emission. […] BRET was measured at 37° C., using a Tristar Microplate Reader (Berthold Technologies) equipped with BRET400-GFP2/10 filter set (acceptor, 515±20 nm; and donor, 400±70 nm filters). […] BRET was measured at 37° C., using a Tristar Microplate Reader (Berthold Technologies).

Structure (SMILES): C=C1C(=O)N[C@@H](C)C(=O)N(C)[C@@H](C)C(=O)N[C@@H]([C@H](OC(=O)[C@@H](NC(=O)CC)[C@H](O)C(C)C)C(C)C)C(=O)N(C)[C@@H]([C@@H](C)OC)C(=O)O[C@H](C(C)C)[C@H](NC(C)=O)C(=O)O[C@H](Cc2ccccc2)C(=O)N1C [Ubo-QIC] (Ac-[X1][dPhLac][NMeDha]A[NMeA][X1](Leu(3R-OH,Nα-propionyl))[NMeT](Me); ester 1-C)
- effect on CCh-mediated response (Rho sensor): completely blocked
